Source: patent publication US20240246984A1, “HETEROCYCLIC JAK INHIBITOR” (BEIJING INNOCARE PHARMA TECH CO., LTD., priority 2020, published 2024)

Assays:
[1] = tested on: IL-12-induced IFN-γ secretion in NK92 cells; test: Inhibition of IL-12-induced IFN-γ secretion in NK92 cells (ELISA); assay type: cell-based; settings: Homo sapiens, IL-12 stimulation, 24 hours, read-out: IC50 (NK92IL12/IFN-γ)
Description: The effect of the compounds of the present invention on IFN-γ secretion in IL-12-induced NK92 cells was evaluated by an enzyme-linked immunosorbent assay (ELISA).
The assay principle was generally described below: IL-12R was mainly expressed in activated T-cells, NK cells (NK92 was an NK cell line), DC cells, and B-cells. When binding to IL-12, it activated the JAK2/TYK2 signal transduction pathway within NK cells and activated T lymphocytes, thereby inducing secretion of IFN-γ.
The compound was dissolved to 2.5 mM in DMSO, followed by a serial 4-fold dilution with DMSO to a minimum concentration of 0.31 μM. Each concentration was further diluted 50-fold with an FBS-free MEMα medium (Thermofisher. 12561-056).
NK92 cells (Nanjing Cobioer, CBP60980) were cultured in a complete MEMα medium containing 12.5% FBS (Ausbian, VS500T), 12.5% horse serum (Thermofisher, 16050-122), 0.02 mM folic acid (Sigma, F8758), 0.2 mM inositol (Sigma, 17850), 0.55 mM β-mercaptoethanol (Thermofish, 21985-023), 200 U/mL IL-2 (R&D Systems, 202-1L), and 100 U/mL penicillin-streptomycin mixed liquor (ThermoFisher, 15140122). When covering 80-90% of the culture container surface, the cells were dispersed and plated on a 96-well plate (ThermoFisher, 167425) with 100,000 cells per well (80 μL of the complete MEMα medium without IL-2). The 96-well plate was then incubated overnight in a 37° C., 5% CO2 incubator.
After overnight incubation, 10 μL of the compound and 10 μL of 50 ng/ml IL-12 (R &D Systems, 219-1L) were added to each well and mixed gently, and the 96-well plate was incubated in the 37° C., 5% CO2 incubator for additional 24 hours. The plate was centrifuged at 800 rpm for 10 minutes at room temperature and 50 μL of the supernatant from each well was transferred to another 96-well plate (Sigma, CLS3695) coated with anti-IFN-γ antibody. The amount of IFN-γ secretion was detected following the instruction from the Human IFN-γ DuoSet ELISA assay kit (R & D Systems, DY285B). In this assay, the group in which IL-12 and the test compound were replaced with the MEMα medium was the non-stimulated control group (100% inhibition), and the group with IL-12 and 0.2% DMSO was the stimulated control group (0% inhibition). The compound inhibition curve was plotted using XLfit software and the IC50 of its inhibition was calculated.

[2] = biological target: human recombinant TYK2 protein (Homo sapiens, UniProt P29597); test: TYK2 activity inhibition assay (HTRF kinase detection); assay type: biochemical; settings: 11.25 μM ATP substrate solution
Description: The effect of the compounds of the present invention on the activity of TYK2 was assessed by using an in vitro kinase detection assay.
The enzymatic activity of TYK2 was assessed by detecting the substrate phosphorylation level in a kinase reaction with a homogeneous time-resolved fluorescence (HTRF) kinase detection kit (Cisbio, 62TK0PEC). A reaction buffer contained an enzyme buffer (1×), 5 mM MgCl2, 1 mM DTT and 0.01% Brij35 from the kit; a human recombinant TYK2 protein (Carna Biosciences, 08-147) was diluted to a kinase reaction solution of 0.25 ng/μL with the reaction buffer; a substrate reaction solution contained 11.25 μM ATP and a biotin-labeled tyrosine kinase substrate diluted to 0.5 μM with the reaction buffer; a detection buffer contained 0.1 ng/μL Eu^3+ labeled cage antibody (Cisbio, 61T66KLB) and 25 nM streptavidin-labeled XL665 (Cisbio, 610SAXLB) in the reaction buffer; the compound was dissolved to 10 μM in DMSO, followed by a serial 4-fold dilution with DMSO to a minimum concentration of 0.061 nM. Each concentration was further diluted 40-fold with the reaction buffer. To a 384-well assay plate (Corning, 3674) were added 4 μL of the compound solutions having a series of concentrations and 2 μL of kinase reaction solutions. After being mixed evenly, the mixtures were incubated at room temperature for 15 minutes, and then 4 μL of the substrate reaction solutions were added. The reaction mixtures were incubated at room temperature for 40 minutes. Then the reaction mixtures were added with 10 μL of detection solutions, mixed evenly, and allowed to stand at room temperature for 30 minutes. An Envision plate reader (Perkin Elmer) was then used to measure the progress of the reaction at wavelengths of 620 nm and 665 nm. The signal value (absorbance at 665 nm/absorbance at 620 nm) was positively correlated with the degree of substrate phosphorylation, therefore the kinase activity of TYK2 was detected. In this assay, the group without TYK2 kinase protein was the 100% inhibition group, and the group with TYK2 kinase protein but without the test compound was the 0% inhibition group. The compound inhibition curve was plotted using XLfit software and the IC50 of its inhibition was calculated.

[3] = biological target: human recombinant JAK2 protein (Homo sapiens, UniProt O60674); test: JAK2 activity inhibition assay (HTRF kinase detection); assay type: biochemical; settings: 2.5 μM ATP substrate solution
Description: The effect of the compounds of the present invention on the activity of JAK2 was assessed by using an in vitro kinase detection assay.
The enzymatic activity of JAK2 was assessed by detecting the substrate phosphorylation level in a kinase reaction with a homogeneous time-resolved fluorescence (HTRF) kinase detection kit (Cisbio, 62TK0PEC). A reaction buffer contained an enzyme buffer (1×), 5 mM MgCl2, 1 mM DTT and 0.01% Brij35 from the kit; a human recombinant JAK2 protein (Carna Biosciences, 08-045) was diluted to a kinase reaction solution of 0.15 ng/μL with the reaction buffer; a substrate reaction solution contained 2.5 μM ATP and a biotin-labeled tyrosine kinase substrate diluted to 0.25 μM with the reaction buffer; a detection buffer contained 0.1 ng/μL Eu^3+ labeled cage antibody (Cisbio, 61T66KLB) and 12.5 nM streptavidin-labeled XL665 (Cisbio, 610SAXLB) in the reaction buffer; the compound was dissolved to 10 μM in DMSO, followed by a serial 4-fold dilution with DMSO to a minimum concentration of 0.061 nM. Each concentration was further diluted 40-fold with the reaction buffer. To a 384-well assay plate (Corning, 3674) were added 4 μL of the compound solutions having a series of concentrations and 2 μL of JAK2 kinase reaction solutions. After being mixed evenly, the mixtures were incubated at room temperature for 15 minutes, and then 4 μL of the substrate reaction solutions were added. The reaction mixtures were incubated at room temperature for 30 minutes. Then the reaction mixtures were added with 10 μL of detection solutions, mixed evenly, and allowed to stand at room temperature for 30 minutes. An Envision plate reader (Perkin Elmer) was then used to measure the progress of the reaction at wavelengths of 620 nm and 665 nm. The signal value (absorbance at 665 nm/absorbance at 620 nm) was positively correlated with the degree of substrate phosphorylation, therefore the kinase activity of JAK2 was detected. In this assay, the group without JAK2 kinase protein was the 100% inhibition group, and the group with JAK2 kinase protein but without the test compound was the 0% inhibition group. The compound inhibition curve was plotted using XLfit software and the IC50 of its inhibition was calculated.

IC50 [1] [nM] | IC50 [2] [nM] | IC50 [3] [nM] | Structure (SMILES)
95 |  |  | O=C1NCCn2c(-c3c(F)cccc3F)nc(Nc3ccc(C(=O)N4CCOCC4)cc3)c21 [Compound 2, 3-(2,6-difluorophenyl)-1-((4-(morpholine-4-carbonyl)phenyl)amino)-6,7-dihydroimidazo[1,5-a]pyrazin-8(5H)-one]
66 | 0.1 | 0.4 | O=C(c1ccc(Nc2nc(-c3c(F)cccc3Cl)n3cc[nH]c(=O)c23)cc1)N1CCOCC1 [Compound 3, 3-(2-chloro-6-fluorophenyl)-1-((4-(morpholine-4-carbonyl)phenyl)amino)imidazo[1,5-a]pyrazin-8(7H)-one]
175 | 0.8 | 2 | Cn1cc(Nc2nc(-c3c(F)cccc3F)n3cc[nH]c(=O)c23)cn1 [Compound 4, 3-(2,6-difluorophenyl)-1-((1-methyl-1H-pyrazol-4-yl)amino)imidazo[1,5-a]pyrazin-8(7H)-one]
1310 | 4.8 | 27 | Cn1cc(Nc2nc(-c3c(F)cccc3F)n3c2C(=O)NCC3)cn1 [Compound 5, 3-(2,6-difluorophenyl)-1-((1-methyl-1H-pyrazol-4-yl)amino)-6,7-dihydroimidazo[1,5-a]pyrazin-8(5H)-one]
198 | 0.3 | 5.3 | O=c1[nH]ccn2c(-c3c(F)cccc3F)nc(Nc3ccc(N4CCOCC4)cc3)c12 [Compound 6, 3-(2,6-difluorophenyl)-1-((4-morpholinophenyl)amino)imidazo[1,5-a]pyrazin-8(7H)-one]
 | 20 | 62 | Cn1ccc(Nc2nc(-c3c(F)cccc3F)n3cc[nH]c(=O)c23)n1 [Compound 7, 3-(2,6-difluorophenyl)-1-((1-methyl-1H-pyrazol-3-yl)amino)imidazo[1,5-a]pyrazin-8(7H)-one]
 | 220 |  | Cn1ccc(Nc2nc(-c3c(F)cccc3F)n3c2C(=O)NCC3)n1 [Compound 8, 3-(2,6-difluorophenyl)-1-((1-methyl-1H-pyrazol-3-yl)amino)-6,7-dihydroimidazo[1,5-a]pyrazin-8(5H)-one]
 | 7 | 13 | O=c1[nH]ccn2c(-c3c(F)cccc3F)nc(Nc3ccc(N4CCOCC4)cn3)c12 [Compound 9, 3-(2,6-difluorophenyl)-1-((5-morpholinopyridin-2-yl)amino)imidazo[1,5-a]pyrazin-8(7H)-one]
122 | 0.4 | 4.4 | O=C1NCCn2c(-c3c(F)cccc3F)nc(Nc3ccc(N4CCOCC4)cc3)c21 [Compound 10, 3-(2,6-difluorophenyl)-1-((4-morpholinophenyl)amino)-6,7-dihydroimidazo[1,5-a]pyrazin-8(5H)-one]
242 | 4 | 1.4 | CS(=O)(=O)c1ccc(Nc2nc(-c3c(F)cccc3F)n3cc[nH]c(=O)c23)cc1 [Compound 11, 3-(2,6-difluorophenyl)-1-((4-(methylsulfonyl)phenyl)amino)imidazo[1,5-a]pyrazin-8(7H)-one]
 | 23 | 14 | CC(=O)N1CCC(c2nc(Nc3ccc(C(=O)N4CCOCC4)cc3)c3c(=O)[nH]ccn23)CC1 [Compound 19, 3-(1-acetylpiperidin-4-yl)-1-((4-(morpholine-4-carbonyl)phenyl)amino)imidazo[1,5-a]pyrazin-8(7H)-one]
 | 37 | 53 | O=C(c1ccc(Nc2nc(C3CCNCC3)n3cc[nH]c(=O)c23)cc1)N1CCOCC1 [Compound 20, 1-((4-(morpholine-4-carbonyl)phenyl)amino)-3-(piperidin-4-yl)imidazo[1,5-a]pyrazin-8(7H)-one]
 | 12 | 12 | O=C(c1ccc(Nc2nc(C3CCN(C4CC4)CC3)n3cc[nH]c(=O)c23)cc1)N1CCOCC1 [Compound 21, 3-(1-cyclopropylpiperidin-4-yl)-1-((4-(morpholine-4-carbonyl)phenyl)amino)imidazo[1,5-a]pyrazin-8(7H)-one]
 | 3.3 | 3.9 | O=C(c1cccc(Nc2nc(-c3c(F)cccc3F)n3cc[nH]c(=O)c23)c1)N1CCOCC1 [Compound 22, 3-(2,6-difluorophenyl)-1-((3-(morpholine-4-carbonyl)phenyl)amino)imidazo[1,5-a]pyrazin-8(7H)-one]
 | 50 | 29 | O=C1NCCn2c(-c3c(F)cccc3F)nc(Nc3cccc(C(=O)N4CCOCC4)c3)c21 [Compound 23, 3-(2,6-difluorophenyl)-1-((3-(morpholine-4-carbonyl)phenyl)amino)-6,7-dihydroimidazo[1,5-a]pyrazin-8(5H)-one]
 | 3.2 | 42 | O=C1NCCn2c(-c3c(F)cccc3F)nc(Nc3cnn(CC(=O)N4CCOCC4)c3)c21 [Compound 24, 3-(2,6-difluorophenyl)-1-((1-(2-morpholino-2-oxoethyl)-1H-pyrazol-4-yl)amino)-6,7-dihydroimidazo[1,5-a]pyrazin-8(5H)-one]
 | 5.1 | 39 | CN1CCN(C(=O)Cn2cc(Nc3nc(-c4c(F)cccc4F)n4c3C(=O)NCC4)cn2)CC1 [Compound 25, 3-(2,6-difluorophenyl)-1-((1-(2-(4-methylpiperazin-1-yl)-2-oxoethyl)-1H-pyrazol-4-yl)amino)-6,7-dihydroimidazo[1,5-a]pyrazin-8(5H)-one]
